Test results published in patent US4376780A, “Novel phenethylamine derivatives and bronchdilator containing the same” (Eisai Co., Ltd., priority 1976, dated 1983).
“Also recorded” adds a separate entry of the source. Counter-ions that a name gives are not always drawn. Like-named read-outs stand apart in the source and are kept apart here.

Assays:
[1] = tested on: asthmatous fit caused by the histamine spray; experiment: Protecting effect against the dyspnea (asthmatous fit) caused by histamine spray, guinea pigs, oral; format: in vivo, guinea pigs of Hartley strain; conditions: for ED50: Cavia porcellus, read-out: ED 50, protecting effect on the asthmatous fit caused by the histamine spray; for protecting effect relative to the two controls, salbutamol and isoproterenol / durability action of the protecting effect / Ratio to isoproterenol (protecting effect): guinea pigs; for durability action of the protecting effect: in words; for Ratio to isoproterenol (protecting effect): isoproterenol = 100
Protocol: Protecting Effect Against The Dyspnea Caused By The Histamine
Male guinea pigs of Hartley strain were used. Aqueous solutions of the compounds to be examined were prepared in various concentrations, and administered orally to the guinea pigs, in a dose of 10 ml/Kg, respectively. After the oral administration, the guinea pigs were taken in a dome. Histamine solution in a concentration of 0.1% was sprayed through a nebulizer at a blow rate of 3500 ml/min. Two symptoms of hypoxia and fit of caughing were used as indices, and a probable appearing time of said two symptoms was watched and observed for 20 minutes from the start of the spraying.
The protecting effect was judged to be effective with the appearing time more than the double of the mean appearing time in 33 examples of the groups wherein physiological saline water was administered.

[2] = Acute toxicity, mice, oral; conditions: mouse, in vivo, 7 days observation
Excerpt: There was examined and observed the acute toxicity of the compounds to be examined for 7 days in the case of oral administration to mice.

[3] = tested on: air way resistance increased by histamine; experiment: Inhibitory effect on the increasing reaction of the air-way resistance of histamine (Konzett-Rossler), anesthetized dogs; format: in vivo
Protocol: Inhibitory Effect On The Increasing Reaction Of The Air-Way Resistance Of Histamine
(§1) Normally healthy dogs (body weights were 10-15 Kg) were used as subject animals, and anesthetized with sodium pentobarbital urethane. The compounds to be examined were injected into the femoral vein of the dog. The inhibitory effect on the increasing reaction of the histamine (10 μg/Kg were administered) to the air way resistance was determined by Konzett-Rossler method.

[4] = tested on: heart beat numbers of the guinea pig; experiment: Effect on the heart beat numbers, conscious guinea pigs; format: in vivo; conditions: for increasing action to the heart beat numbers of the guinea pig: calculation from the product of the intensity action with the durability
Protocol: Effect On The Heart Beat Numbers
(1) Conscious guinea pigs
The guinea pigs were used, in which electrodes of stainless steel were pierced and put in both forelegs of the respective guinea pigs under previous anesthesia (after 24 hours from this operation).
The guinea pigs were isolated one by one in observation boxes, recorded their electrocardiogram (the first induction) under quiet circumstances, and heart beat numbers were counted.
All compounds to be examined were administered orally. The recording and measuring were carried out three times before the administration and with the lapse of time until 180 minutes after the administration.
Calculation From The Product Of The Intensity Action With The Durability

[5] = tested on: blood pressure in the anesthetized dogs; experiment: Effect on the blood pressure, anesthetized dogs; format: in vivo
Protocol: as §1
Effect On The Blood Pressure
Using the anesthetized dogs as same as pharmacological experiment 2, and injecting the compounds to be examined into the dogs from the femoral vein, the effect on the blood pressure was examined.

[6] = tested on: heart beat numbers of the anesthetized dogs; experiment: Effect on the heart beat numbers, anesthetized dogs; format: in vivo; conditions: intravenous
Protocol: as §1
Using anesthetized dogs as same as the pharmacological experiment 2, and injecting the compounds to be examined into the dogs from the femoral vein thereof, the increasing actions to the heart beat numbers were examined.

[7] = oral, male Hartley guinea pigs, 0.1% histamine spray

Row | SMILES | ED50 ([1]; po) [mg/kg] | protecting effect relative to the two controls, salbutamol and isoproterenol ([1]; oral) | durability action of the protecting effect ([1]; oral) | Ratio to isoproterenol (protecting effect) ([1]; oral) | LD50 at 168 h [2] [mg/kg] | ED50 [1, 7] [mg/kg] | inhibition at 0.03 mg/kg ([3]; Canis lupus familiaris, 10 min, 30 μg/Kg, intravenous, after 10 minutes, read-out: inhibitory effect on air way resistance 10 minutes after the administration) [%] | minimal effective dose ([3]; Canis lupus familiaris, intravenous, immediately after administration, read-out: dose with distinct inhibitory effect on air way resistance immediately after the administration) [mg/kg] | increasing action to the heart beat numbers of the guinea pig ([4]; 0.3 mg/Kg oral) | increasing action to the heart beat numbers of the guinea pig ([4]; 3 mg/Kg oral) | increasing action to the heart beat numbers of the guinea pig ([4]; 30 mg/Kg oral) | depression effect on the blood pressure, in words ([5]; dog, in vivo, iv) | durability effect on the blood pressure, in words ([5]; dog, in vivo, iv) | inhibition at 0.003 mg/kg ([3]; Canis lupus familiaris, iv, read-out: inhibitory effect on the increasing reaction of the histamine to the air way resistance) [%] | inhibitory effect on air way resistance, comparison and durability in words ([3]; intravenous, anesthetized dogs, fumarate) | increasing action to the heart beat numbers, in words ([4]; oral, conscious guinea pigs, fumarate) | dosage showing increasing action to the heart beat numbers [6] | increasing action to the heart beat numbers, comparison in words [6] | dosage showing remarkable depression effect upon the blood pressure ([5]; intravenous, anesthetized dogs)
1 | COCc1cc(C(O)CNC(C)Cc2ccc(O)cc2)ccc1O.O=C(O)C(=O)O (stereo not drawn) [Compound C, 1-(4-hydroxy-3-methoxymethylphenyl)-2-(α-methyl-4-hydroxyphenethylamino)ethanol oxalate] | 0.36 | 5-7 times | extended obviously longer than those of the two controls | 806 | 1200 | – | – | – | – | – | – | – | – | – | – | – | – | – | –
2 | CC(C)NCC(O)c1ccc(O)c(O)c1 [Isoproterenol, L-isoproterenol hydrochloride, reference compound] | – | – | – | – | – | 2.9 | 10 | ~0.001 | 87.3 | 86.9 | 147.0 | more intense depression effect than that of the compound A of this invention | relatively short in durability effect | – | – | – | – | – | –
3 | COCc1cc(C(O)CNC(C)Cc2ccc(OC)cc2)ccc1O.O=C(O)/C=C/C(=O)O (stereo not drawn) [Compound A, 1-(4-hydroxy-3-methoxymethylphenyl)-2-(α-methyl-4-methoxyphenethylamino)ethanol fumarate] | 0.39 | 5-7 times | extended obviously longer than those of the two controls | 744 | 1050 | – | – | – | 36.8 | 75.0 | 93.7 | – | – | > 50 | almost same as those of salbutamol | distinct increasing action to the heart beat numbers with the dosage of 0.3 mg/Kg; also recorded: relatively same as that of Salbutamol and weaker than that of Isoproterenol | more than 3 μg/Kg | weaker than that of Isoproterenol, and rather more intense than that of Salbutamol | more than 3 μg/Kg
4 | COCc1cc(C(O)CNC(C)Cc2ccc3c(c2)OCO3)ccc1O (stereo not drawn) [Compound B, 1-(4-hydroxy-3-methoxymethylphenyl)-2-(α-methyl-3,4-methylenedioxyphenethylamine)ethanol oxalate] | – | 5-7 times | extended obviously longer than those of the two controls | 518 | 1200 | 0.56 | – | – | – | – | – | – | – | – | – | – | – | – | –
5 | CC(C)(C)NCC(O)c1ccc(O)c(CO)c1.Cl (stereo not shown) [Salbutamol, 1-(4-hydroxy-3-hydroxymethylphenyl)-2-(t-butylamino)-ethanol hydrochloride, reference compound] | – | – | – | – | – | 2.25 | – | – | – | – | – | rather weaker tendency | – | – | – | – | – | – | –
